Measured values from paper PMC8954547, “Nonpeptidic Z360-Analogs Tagged with Trivalent Radiometals as Anti-CCK2R Cancer Theranostic Agents: A Preclinical Study” (Pharmaceutics, 2022).

How the values were obtained:
[1] = target: T1, human CCK2i4svR splice variant (Homo sapiens, UniProt P32239); assay: Competition binding against [125I][I-Tyr12,Leu15]gastrin-17 in HEK293-CCK2i4svR cell membranes; conditions: vs [125I][I-Tyr12,Leu15]gastrin-17, HEK293-CCK2i4svR cell membranes, 1 h 22 °C; mean ± SD
T1 construct: expressed in transfected cells; membrane homogenates
T1 sequence (P32239 1-516 isoform P32239-2): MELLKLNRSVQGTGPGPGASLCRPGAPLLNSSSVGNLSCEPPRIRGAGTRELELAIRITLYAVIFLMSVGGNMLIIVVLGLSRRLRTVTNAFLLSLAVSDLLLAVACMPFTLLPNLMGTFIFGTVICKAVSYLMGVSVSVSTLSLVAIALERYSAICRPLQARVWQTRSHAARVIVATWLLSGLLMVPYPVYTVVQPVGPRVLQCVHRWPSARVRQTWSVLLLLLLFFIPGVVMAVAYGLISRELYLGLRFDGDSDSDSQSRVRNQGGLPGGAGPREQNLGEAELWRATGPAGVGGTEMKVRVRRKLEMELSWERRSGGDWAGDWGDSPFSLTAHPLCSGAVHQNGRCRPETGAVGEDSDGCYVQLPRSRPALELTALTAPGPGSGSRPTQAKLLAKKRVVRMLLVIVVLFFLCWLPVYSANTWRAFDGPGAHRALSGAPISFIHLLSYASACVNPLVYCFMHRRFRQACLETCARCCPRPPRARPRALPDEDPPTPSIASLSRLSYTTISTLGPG
Protocol: Competition binding assays for the metal-free GAS1/2/3 and the corresponding metal-tagged [^natGa]Ga/[^natIn]In/[^natLu]Lu-GAS1/3 and [^natGa]Ga/[^natIn]In-GAS2 analogs were conducted against the [^125I][I-Tyr^12,Leu^15]gastrin-17 radioligand in membrane homogenates harvested from HEK293-CCK2i4svR cells, as previously described. Briefly, each of the above analogs, or unmodified Z360 serving as control, was incubated in triplicates of increasing concentrations (10^−13–10^−6 M) with [^125I][I-Tyr^12,Leu^15]gastrin-17 (50 pM, ≈40,000 cpm) and membrane homogenate in binding buffer (300 µL, pH 7.4, 50 mM HEPES, 1% BSA, 5.5 mM MgCl2, 35 µM bacitracin) for 1 h at 22 °C. Incubation was interrupted by rapid filtration through glass fiber filters (Whatman GF/B, presoaked in binding buffer for at least 1 h) on a Brandel Cell Harvester (Adi Hassel Ingenieur Büro, Munich, Germany) and subsequent rinsing with ice-cold washing buffer (10 mM HEPES pH 7.4, 150 mM NaCl). The radioactivity content of individual filters was measured in a gamma counter (automated multi-sample well-type instrument with a NaI(Tl) 3′ crystal, Canberra Packard Cobra^TM Quantum U5003/1, Auto-Gamma® counting system). The 50% inhibitory concentration (IC50) was determined by nonlinear regression analysis according to a one-site model using PRISM 6 (Graph Pad Software, San Diego, CA, USA). Values are expressed as mean ± standard deviation (SD) of three independent experiments performed in triplicate.

[2] = system: SCID mice bearing twin HEK293-CCK2i4svR and wtHEK293 tumors; assay: Biodistribution in SCID mice bearing twin HEK293-CCK2i4svR and wtHEK293 xenografts; type: in vivo
Protocol: Inocula containing a suspension of freshly harvested HEK293-CCK2i4svR/wtHEK293 cells (150 μL, 1.8 × 10^7/1.4 × 10^7 cells, respectively, in normal saline) were subcutaneously (sc) injected in the right and left flanks of male SCID mice (24.5 ± 2.3 g body weight, six weeks of age on arrival day, NCSR “Demokritos” Animal House Facility). Well-palpable tumors (0.42 ± 0.37/0.25 ± […], respectively) were grown at the inoculation site 3–4 weeks later, and biodistribution was conducted. On the day of biodistribution, animals were divided into groups of four and received the radioligand through the tail vein as a bolus (100 μL, containing each of: i. 78–91 kBq [^67Ga]GAS1/2/3 corresponding to 7–17 pmol GAS1/2/3; ii. 74–92 kBq [^111In]GAS1/2/3 corresponding to 20–25 pmol GAS1/2/3; iii. 730 kBq [^177Lu]Lu-GAS1/3 corresponding to 40 pmol GAS1/3, in-vehicle: saline/EtOH 9/1 v/v). Animals were euthanized at predetermined time intervals depending upon the radionuclide applied (for [^67Ga]Ga-GAS1/2/3: 1, 4 and 24 h pi; for [^111In]In-GAS1/2/3: 4 and 24 h pi–two extra groups of mice receiving gelofusine together with [^111In]In-GAS1/2 at 4 and 24 h pi were included; and for [^177Lu]Lu-GAS1/3: 4, 24, 48, 72 and 96 h pi). Mice were dissected, and blood samples, organs of interest and tumors were rapidly collected, weighted and counted in the gamma counter. Biodistribution data was calculated as the percentage of the administered dose per gram tissue (%IA/g) with the aid of suitable standards of the administered dose and the Microsoft Excel program. Results are presented as mean % IA/g values ± SD, n = 4 per time point, as determined by the PRISM^TM 6.0 GraphPad software (San Diego, CA, USA).

HEK293-CCK2i4svR cells = assay: Radioligand uptake and internalization in HEK293-CCK2i4svR cells; type: cell-based, human; conditions: 1 h 37 °C, specific, of total added activity
Protocol: A day before the experiment, HEK293-CCK2i4svR cells were seeded in six-well plates. The next day, cells were rinsed with ice-cold internalization medium (IM: DMEM Glutamax-I, supplemented by 1% (v/v) FBS) and then the fresh medium was added (1.2 mL) at 37 °C. A further portion of IM (150 µL) was added in the upper well-row, and DG2 solution in IM (150 µL) was added in the lower row (to a final concentration of 1 μM; non-specific series). Each of the test radioligands, [^67Ga]Ga/[^111In]In/[^177Lu]Lu-GAS1/3 and [^67Ga]Ga/[^111In]In-GAS2, was finally added (250 fmol total conjugates in 150 μL 0.5% BSA-PBS) in all the wells and the plates were incubated at for 1 h at 37 °C in an Incubator-Orbital Shaker unit (MPM Instr. SrI, Bernareggio, MI, Italy); [^111In]In-GAS1/2/3 were incubated for 15 min, 30 min, 1 h and 2 h. At the predetermined time points, the plates were placed on ice, the medium was collected, and the plates were rinsed with 0.5% BSA-PBS (1 mL). Cells were subsequently treated with an acid-wash solution (2 × 600 µL; 50 mM glycine buffer pH 2.8, 0.1 M NaCl) and the fractions collected (membrane-bound). After briefly washing with 0.5% BSA-PBS (1 mL), the cells were lysed with 1 N NaOH (2 × 600 µL), and the fractions were collected (internalized). The radioactivity content of collected fractions was counted in the gamma counter, and the percentage of internalized and membrane-bound fractions per time point were calculated with Microsoft Excel. Specific internalized and membrane-bound counts were determined by subtracting the respective non-specific (in the presence of 1 μM DG2) from the respective total counts. Results represent specific internalized/membrane bound ± SD of total added radioactivity per well from three experiments performed in triplicate.

## CC(C)(C)C(=O)CN1C(=O)[C@H](NC(=O)Nc2cccc(C(=O)NCCOCCOCCOCCNC(=O)[C@H](CCC(=O)O)NC(=O)CN3CCN(CC(=O)[O-])CCN(CC(=O)[O-])CCN(CC(=O)[O-])CC3)c2)CN(C2CCCCC2)c2ccccc21.[In+3] [[^natIn]In-GAS1]
[1]
  IC50: 5 ± 1.1 nM

## CC(C)(C)C(=O)CN1C(=O)[C@H](NC(=O)Nc2cccc(C(=O)NCCOCCOCCOCCNC(=O)[C@H](CCC(=O)O)NC(=O)CCC(C(=O)O)N3CCN(CC(=O)[O-])CCN(CC(=O)[O-])CCN(CC(=O)[O-])CC3)c2)CN(C2CCCCC2)c2ccccc21.[Ga+3] (stereo partly drawn) [[^natGa]Ga-GAS3]
[1]
  IC50: 4.8 ± 0.6 nM

## CC(C)(C)C(=O)CN1C(=O)[C@H](NC(=O)Nc2cccc(C(=O)NCCOCCOCCOCCNC(=O)[C@H](CCC(=O)O)NC(=O)CCC(C(=O)O)N3CCN(CC(=O)[O-])CCN(CC(=O)[O-])CCN(CC(=O)[O-])CC3)c2)CN(C2CCCCC2)c2ccccc21.[Lu+3] (stereo partly drawn) [[^natLu]Lu-GAS3]
[1]
  IC50: 4.3 ± 0.9 nM

## CC(C)(C)C(=O)CN1C(=O)[C@H](NC(=O)Nc2cccc(C(=O)NCCOCCOCCOCCNC(=O)[C@H](CCC(=O)O)NC(=O)CCC(C(=O)O)N3CCN(CC(=O)[O-])CCN(CC(=O)[O-])CCN(CC(=O)[O-])CC3)c2)CN(C2CCCCC2)c2ccccc21.[In+3] (stereo partly drawn) [[^natIn]In-GAS3]
[1]
  IC50: 1.9 ± 0.2 nM

## CC(C)(C)C(=O)CN1C(=O)[C@H](NC(=O)Nc2cccc(C(=O)NCCOCCOCCOCCNC(=O)[C@H](CCC(=O)O)NC(=O)CCC(C(=O)[O-])N3CCN(CC(=O)[O-])CCN(CC(=O)[O-])CC3)c2)CN(C2CCCCC2)c2ccccc21.[Ga+3] (stereo partly drawn) [[^natGa]Ga-GAS2]
[1]
  IC50: 8.8 ± 1.6 nM

## CC(C)(C)C(=O)CN1C(=O)[C@H](NC(=O)Nc2cccc(C(=O)NCCOCCOCCOCCNC(=O)[C@H](CCC(=O)O)NC(=O)CCC(C(=O)[O-])N3CCN(CC(=O)[O-])CCN(CC(=O)[O-])CC3)c2)CN(C2CCCCC2)c2ccccc21.[In+3] (stereo partly drawn) [[^natIn]In-GAS2]
[1]
  IC50: 53.2 ± 2.7 nM

## CC(C)(C)C(=O)CN1C(=O)[C@H](NC(=O)Nc2cccc(C(=O)NCCOCCOCCOCCNC(=O)[C@H](CCC(=O)O)NC(=O)CN3CCN(CC(=O)[O-])CCN(CC(=O)[O-])CCN(CC(=O)[O-])CC3)c2)CN(C2CCCCC2)c2ccccc21.[Ga+3] [[^natGa]Ga-GAS1]
[1]
  IC50: 13.8 ± 2.7 nM

## CC(C)(C)C(=O)CN1C(=O)[C@H](NC(=O)Nc2cccc(C(=O)NCCOCCOCCOCCNC(=O)[C@H](CCC(=O)O)NC(=O)CCC(C(=O)O)N3CCN(CC(=O)[O-])CCN(CC(=O)[O-])CCN(CC(=O)[O-])CC3)c2)CN(C2CCCCC2)c2ccccc21.[67Ga+3] (stereo in doubt) [[^67Ga]Ga-GAS3]
[2]; 1 h pi
  Biodistribution, Blood: 8.61 ± 1.17 %IA/g
  Biodistribution, CCK2i4svR(+) Tumor: 21.75 ± 4.90 %IA/g
  Biodistribution, CCK2i4svR(-) Tumor: 2.52 ± 0.28 %IA/g
  Biodistribution, Femur: 1.60 ± 0.31 %IA/g
  Biodistribution, Heart: 2.23 ± 0.38 %IA/g
  Biodistribution, Intestines: 1.53 ± 0.19 %IA/g
  Biodistribution, Kidneys: 9.09 ± 1.51 %IA/g
  Biodistribution, Liver: 5.62 ± 0.40 %IA/g
  Biodistribution, Lungs: 4.32 ± 0.58 %IA/g
  Biodistribution, Muscle: 0.82 ± 0.14 %IA/g
  Biodistribution, Pancreas: 2.51 ± 0.22 %IA/g
  Biodistribution, Spleen: 1.96 ± 0.13 %IA/g
  Biodistribution, Stomach: 1.51 ± 0.13 %IA/g
[2]; 4 h pi
  Biodistribution, Blood: 2.23 ± 0.39 %IA/g
  Biodistribution, CCK2i4svR(+) Tumor: 20.39 ± 3.96 %IA/g
  Biodistribution, CCK2i4svR(-) Tumor: 1.15 ± 0.18 %IA/g
  Biodistribution, Femur: 0.78 ± 0.10 %IA/g
  Biodistribution, Heart: 0.76 ± 0.07 %IA/g
  Biodistribution, Intestines: 1.59 ± 0.19 %IA/g
  Biodistribution, Kidneys: 7.86 ± 0.48 %IA/g
  Biodistribution, Liver: 4.97 ± 0.74 %IA/g
  Biodistribution, Muscle: 0.25 ± 0.05 %IA/g
  Biodistribution, Pancreas: 0.77 ± 0.11 %IA/g
  Biodistribution, Spleen: 1.60 ± 0.39 %IA/g
  Biodistribution, Stomach: 0.61 ± 0.12 %IA/g
[2]; 24 h pi
  Biodistribution, Blood: 0.14 ± 0.02 %IA/g
  Biodistribution, CCK2i4svR(+) Tumor: 5.37 ± 1.00 %IA/g
  Biodistribution, CCK2i4svR(-) Tumor: 0.61 ± 0.08 %IA/g
  Biodistribution, Femur: 0.52 ± 0.07 %IA/g
  Biodistribution, Heart: 0.17 ± 0.02 %IA/g
  Biodistribution, Intestines: 0.39 ± 0.06 %IA/g
  Biodistribution, Kidneys: 1.98 ± 0.45 %IA/g
  Biodistribution, Liver: 2.48 ± 0.34 %IA/g
  Biodistribution, Lungs: 2.43 ± 1.04 %IA/g
  Biodistribution, Muscle: 0.06± 0.00 %IA/g
  Biodistribution, Pancreas: 0.17 ± 0.03 %IA/g
  Biodistribution, Spleen: 1.67 ± 0.37 %IA/g
  Biodistribution, Stomach: 0.19 ± 0.03 %IA/g
[2]; mouse, in vivo
  Background clearance / excretion route: cleared mainly via the kidneys
HEK293-CCK2i4svR cells
  Cell uptake (internalized + membrane-bound): 4.95 ± 0.51%

## CC(C)(C)C(=O)CN1C(=O)[C@H](NC(=O)Nc2cccc(C(=O)NCCOCCOCCOCCNC(=O)[C@H](CCC(=O)O)NC(=O)CN3CCN(CC(=O)[O-])CCN(CC(=O)[O-])CCN(CC(=O)[O-])CC3)c2)CN(C2CCCCC2)c2ccccc21.[Lu+3] [[^natLu]Lu-GAS1]
[1]
  IC50: 12.4 ± 0.2 nM
